# pEC50: −log10 of the molar value. Where two headings read alike, the source gives them in different places.
# Tests used:
# [1] = Cytotoxicity, ATPlite cell viability; assay type: cell-based; conditions: human, mean value, HepG2 or HepG2.117 cells
# Method: Cytotoxicity of the compounds was tested using HepG2 or HepG2.117 cells, incubated for 4 days in the presence of compounds. The viability of the cells was assessed using the Perkin Elmer ATPlite Luminescence Assay System.”
# [2] = system: HBV; test: anti HBV activity, HepG2.117 cell line, intracellular HBV DNA by real-time PCR; assay type: cell-based, hepatitis B virus; conditions: for pEC50: Hepatitis B virus, read-out: HBV-AVE-HepG2.117_intra_EC50
# Method: The anti HBV activity was measured using the HepG2.117 cell line, a stable, inducible HBV producing cell line, which replicates HBV in the absence of doxicycline (Tet-off system). The HepG2 cell line is available from ATCC® under number HB-8065. Transfection of the HepG2 cell line can be as described in Sun and Nassal 2006 Journal of Hepatology 45 (2006) 636-645 “Stable HepG2-and Huh7-based human hepatoma cell lines for efficient regulated expression of infectious hepatitis B virus”.
# For the antiviral assay, HBV replication was induced, followed by a treatment with serially diluted compound in 96-well plates. After 3 days of treatment, the antiviral activity was determined by quantification of intracellular HBV DNA using real-time PCR and an HBV specific primer set and probe.
# [3] = 72 h, mean value, HepG2.117 cells, 3 days of treatment, intracellular HBV DNA
SMILES,CC50 at 4 days [1] [nM],"pEC50 [2, 3]","pEC50 ([2]; HepG2.117, 72 h)","improved anti-HBV activity, fold improvement over Ref. compound 59 ([2]; from table 4 EC50 values) [fold]"
Cn1cc(C(=O)C(=O)NC2(c3ccccc3)CC(F)(F)C2)cc1C(=O)Nc1ccc(F)c(C#N)c1 [Compound 36],1100,8.00,–,–
"Cn1cc(C(=O)C(=O)N[C@H](CC(F)F)c2cn[nH]n2)cc1C(=O)Nc1ccc(F)c(C#N)c1 (single isomer, unassigned) [24*R]",9400,7.34,–,–
"Cc1c(C(=O)C(=O)N[C@@H](CC(F)(F)F)c2cn[nH]n2)cn(C)c1C(=O)Nc1ccc(F)c(Cl)c1 (single isomer, unassigned) [26*S]",> 50000,7.74,–,–
Cn1cc(C(=O)C(=O)NC(CC(F)F)c2cn[nH]n2)cc1C(=O)Nc1ccc(F)c(C#N)c1 (centres unmarked) [Compound 24RS],22100,7.22,–,–
Cn1cc(C2(NC(=O)C(=O)c3cn(C)c(C(=O)Nc4ccc(F)c(Cl)c4)c3Cl)CC(F)(F)C2)nn1 [Compound 15],> 50000,8.40,–,–
Cn1ncc(C2(NC(=O)C(=O)c3cn(C)c(C(=O)Nc4ccc(F)c(Cl)c4)c3Cl)CC(F)(F)C2)n1 [Compound 16],> 50000,8.52,–,–
COc1c(C(=O)C(=O)NC2(c3cn[nH]n3)CC(F)(F)C2)cn(C)c1C(=O)Nc1ccc(F)c(C#N)c1 [Compound 32],31700,7.57,–,–
Cn1c(C#N)c(C(=O)C(=O)NC2(c3cn[nH]n3)CC(F)(F)C2)c(F)c1C(=O)Nc1ccc(F)c(C#N)c1 [Compound 50],> 50000,5.89,–,–
"Cc1c(C(=O)C(=O)N[C@H](CC(F)(F)F)c2cn[nH]n2)cn(C)c1C(=O)Nc1ccc(F)c(Cl)c1 (single isomer, unassigned) [26*R]",> 50000,8.15,–,–
"Cc1c(C(=O)C(=O)N[C@H](CC(F)(F)F)c2cn[nH]n2)c(C)n(C)c1C(=O)Nc1ccc(F)c(C#N)c1 (single isomer, unassigned) [44*R]",> 50000,8.30,–,–
Cc1c(C(=O)C(=O)N[C@]2(c3cn[nH]n3)C[C@@H](O)C2)cn(C)c1C(=O)Nc1ccc(F)c(C#N)c1 [Compound 58trans],> 50000,7.06,–,–
"Cc1cc(NC(=O)c2cc(C(=O)C(=O)NC3(c4cn[nH]n4)CC(F)(F)C3)cn2C)ccc1F [Compound 2, 4-[{[3,3-Difluoro-1-(2H-1,2,3-triazol-4-yl)cyclobutyl]amino}(oxo)acetyl]-N-(4-fluoro-3-methylphenyl)-1-methyl-1H-pyrrole-2-carboxamide]",23800,–,7.49,~18
Cc1c(C(=O)C(=O)NC2(c3cn[nH]n3)CC(F)(F)C2)c(Cl)n(C)c1C(=O)Nc1ccc(F)c(Cl)c1 [Compound 35],5800,8.40,–,–
Cc1c(C(=O)C(=O)NC2(c3cn[nH]n3)CC(F)(F)C2)cc(C(=O)Nc2ccc(F)c(C#N)c2)n1C [Compound 45],> 50000,8.05,–,–
Cc1c(C(=O)C(=O)N[C@]2(c3cn[nH]n3)C[C@@H](F)C2)cn(C)c1C(=O)Nc1ccc(F)c(C#N)c1 [Compound 57trans],> 50000,8.15,–,–
"Cc1c(C(=O)C(=O)N[C@@]2(c3cn[nH]n3)CCC(F)(F)C2)cn(C)c1C(=O)Nc1ccc(F)c(Cl)c1 (single isomer, unassigned) [25*S]",24200,8.40,–,–
Cc1c(C(=O)C(=O)NC(C)(c2cn[nH]n2)C(F)(F)F)cn(C)c1C(=O)Nc1ccc(F)c(C#N)c1 (centres unmarked) [Compound 51],> 50000,7.89,–,–
Cn1cc(C(=O)C(=O)NC2(c3cn[nH]n3)CC(F)(F)C2)cc1C(=O)Nc1ccc(F)c(Cl)c1 [Compound 6],7100,7.77,–,–
Cn1cc(C(=O)C(=O)NC2(c3c[nH]cn3)CC(F)(F)C2)cc1C(=O)Nc1ccc(F)c(C#N)c1 [Compound 56],20000,7.36,–,–
Cc1c(C(=O)C(=O)NC2(c3cn[nH]n3)CC(F)(F)C2)cn(C)c1C(=O)Nc1ccc(F)c(Br)c1 [Compound 34],26300,8.40,–,–

# — patent US11096931B2, “Amide derivatives useful in the treatment of HBV infection or HBV-induced diseases” (Janssen Sciences Ireland Unlimited Company, priority 2019, dated 2021)
